± gives the expanded uncertainty stated by the source.
Assay: mn = molality of the nth substance listed, in mol/kg
Conditions: Liquid

O=[N+]([O-])[O-].[Li+] [lithium nitrate] + CO
Conditions | mass density [kg/m3]
348.25 K, 312 kPa, m1 = 3.614 | 887.13 ± 0.16
348.25 K, 318 kPa, m1 = 1.803 | 819.91 ± 0.22
348.25 K, 325 kPa, m1 = 0.5393 | 764.85 ± 0.26
348.25 K, 4991 kPa, m1 = 0.5393 | 770.52 ± 0.34
348.25 K, 5006 kPa, m1 = 3.614 | 891.37 ± 0.2
348.25 K, 5009 kPa, m1 = 1.803 | 824.85 ± 0.27
348.25 K, 9982 kPa, m1 = 3.614 | 895.64 ± 0.23
348.25 K, 10005 kPa, m1 = 1.803 | 829.8 ± 0.33
348.25 K, 10014 kPa, m1 = 0.5393 | 776.21 ± 0.42
348.25 K, 14983 kPa, m1 = 1.803 | 834.47 ± 0.39
348.25 K, 14987 kPa, m1 = 0.5393 | 781.48 ± 0.49
348.25 K, 15007 kPa, m1 = 3.614 | 899.77 ± 0.26
348.25 K, 19991 kPa, m1 = 1.803 | 838.93 ± 0.44
348.25 K, 19995 kPa, m1 = 3.614 | 903.68 ± 0.29
348.25 K, 20004 kPa, m1 = 0.5393 | 786.51 ± 0.56
348.25 K, 24984 kPa, m1 = 1.803 | 843.17 ± 0.49
348.25 K, 24990 kPa, m1 = 3.614 | 907.45 ± 0.32
348.25 K, 25002 kPa, m1 = 0.5393 | 791.23 ± 0.63
348.25 K, 29989 kPa, m1 = 0.5393 | 795.72 ± 0.7
348.25 K, 29996 kPa, m1 = 3.614 | 911.08 ± 0.35
348.25 K, 30007 kPa, m1 = 1.803 | 847.26 ± 0.54
348.25 K, 34987 kPa, m1 = 0.5393 | 800.01 ± 0.77
348.25 K, 34994 kPa, m1 = 3.614 | 914.59 ± 0.37
348.25 K, 34996 kPa, m1 = 1.803 | 851.13 ± 0.59
348.25 K, 39988 kPa, m1 = 0.5393 | 804.12 ± 0.83
348.25 K, 39995 kPa, m1 = 1.803 | 854.88 ± 0.63
348.25 K, 40008 kPa, m1 = 3.614 | 917.97 ± 0.39
373.15 K, 572 kPa, m1 = 0.1551 | 719.83 ± 0.31
373.15 K, 578 kPa, m1 = 0.8904 | 757.09 ± 0.27
373.15 K, 627 kPa, m1 = 0.2943 | 727.47 ± 0.3
373.15 K, 4896 kPa, m1 = 0.1551 | 726.23 ± 0.39
373.15 K, 4896 kPa, m1 = 0.8904 | 762.68 ± 0.35
373.15 K, 5038 kPa, m1 = 0.2943 | 733.83 ± 0.38
373.15 K, 10365 kPa, m1 = 0.2943 | 741.1 ± 0.48
373.15 K, 10738 kPa, m1 = 0.1551 | 734.38 ± 0.5
373.15 K, 10738 kPa, m1 = 0.8904 | 769.86 ± 0.44
373.15 K, 15238 kPa, m1 = 0.1551 | 740.28 ± 0.58
373.15 K, 15238 kPa, m1 = 0.8904 | 775.11 ± 0.51
373.15 K, 15875 kPa, m1 = 0.2943 | 748.15 ± 0.57
373.15 K, 20369 kPa, m1 = 0.2943 | 753.53 ± 0.65
373.15 K, 21035 kPa, m1 = 0.1551 | 747.38 ± 0.68
373.15 K, 21035 kPa, m1 = 0.8904 | 781.49 ± 0.59
373.15 K, 25124 kPa, m1 = 0.1551 | 752.05 ± 0.74
373.15 K, 25124 kPa, m1 = 0.8904 | 785.73 ± 0.65
373.15 K, 25852 kPa, m1 = 0.2943 | 759.66 ± 0.74
373.15 K, 30147 kPa, m1 = 0.2943 | 764.13 ± 0.8
373.15 K, 30418 kPa, m1 = 0.1551 | 757.68 ± 0.83
373.15 K, 30418 kPa, m1 = 0.8904 | 790.91 ± 0.72
373.15 K, 35753 kPa, m1 = 0.2943 | 769.52 ± 0.89
373.15 K, 35984 kPa, m1 = 0.1551 | 763.11 ± 0.92
373.15 K, 35984 kPa, m1 = 0.8904 | 795.98 ± 0.8
373.15 K, 39901 kPa, m1 = 0.1551 | 766.61 ± 0.97
373.15 K, 39901 kPa, m1 = 0.8904 | 799.31 ± 0.85
373.15 K, 39951 kPa, m1 = 0.2943 | 773.22 ± 0.95
373.27 K, 528 kPa, m1 = 3.614 | 865.29 ± 0.19
373.27 K, 532 kPa, m1 = 1.803 | 796.7 ± 0.24
373.27 K, 4988 kPa, m1 = 1.803 | 802.12 ± 0.3
373.27 K, 5015 kPa, m1 = 3.614 | 869.9 ± 0.23
373.27 K, 9996 kPa, m1 = 1.803 | 807.82 ± 0.37
373.27 K, 10010 kPa, m1 = 3.614 | 874.76 ± 0.27
373.27 K, 14985 kPa, m1 = 1.803 | 813.14 ± 0.43
373.27 K, 14994 kPa, m1 = 3.614 | 879.35 ± 0.31
373.27 K, 19990 kPa, m1 = 1.803 | 818.17 ± 0.49
373.27 K, 19991 kPa, m1 = 3.614 | 883.74 ± 0.34
373.27 K, 24989 kPa, m1 = 1.803 | 822.92 ± 0.55
373.27 K, 24995 kPa, m1 = 3.614 | 887.93 ± 0.38
373.27 K, 29999 kPa, m1 = 3.614 | 891.95 ± 0.41
373.27 K, 30013 kPa, m1 = 1.803 | 827.46 ± 0.61
373.27 K, 34987 kPa, m1 = 3.614 | 895.79 ± 0.44
373.27 K, 35004 kPa, m1 = 1.803 | 831.77 ± 0.66
373.27 K, 39994 kPa, m1 = 3.614 | 899.5 ± 0.46
373.27 K, 39997 kPa, m1 = 1.803 | 835.89 ± 0.71
373.28 K, 542 kPa, m1 = 0.5393 | 739.72 ± 0.29
373.28 K, 4986 kPa, m1 = 0.5393 | 746.09 ± 0.37
373.28 K, 9996 kPa, m1 = 0.5393 | 752.7 ± 0.45
373.28 K, 14984 kPa, m1 = 0.5393 | 758.8 ± 0.54
373.28 K, 20003 kPa, m1 = 0.5393 | 764.52 ± 0.62
373.28 K, 24985 kPa, m1 = 0.5393 | 769.85 ± 0.69
373.28 K, 29993 kPa, m1 = 0.5393 | 774.9 ± 0.77
373.28 K, 35001 kPa, m1 = 0.5393 | 779.7 ± 0.84
373.28 K, 39997 kPa, m1 = 0.5393 | 784.24 ± 0.91
398.15 K, 1035 kPa, m1 = 0.2943 | 699.13 ± 0.34
398.15 K, 1138 kPa, m1 = 0.8904 | 730.97 ± 0.31
398.15 K, 1432 kPa, m1 = 0.1551 | 691.82 ± 0.35
398.15 K, 5023 kPa, m1 = 0.8904 | 736.91 ± 0.38
398.15 K, 5126 kPa, m1 = 0.1551 | 698.39 ± 0.43
398.15 K, 5236 kPa, m1 = 0.2943 | 706.42 ± 0.42
398.15 K, 10058 kPa, m1 = 0.8904 | 744.23 ± 0.47
398.15 K, 10628 kPa, m1 = 0.1551 | 707.59 ± 0.54
398.15 K, 10698 kPa, m1 = 0.2943 | 715.31 ± 0.53
398.15 K, 15234 kPa, m1 = 0.1551 | 714.77 ± 0.63
398.15 K, 15573 kPa, m1 = 0.8904 | 751.75 ± 0.56
398.15 K, 15874 kPa, m1 = 0.2943 | 723.14 ± 0.63
398.15 K, 20035 kPa, m1 = 0.8904 | 757.46 ± 0.64
398.15 K, 20452 kPa, m1 = 0.2943 | 729.57 ± 0.71
398.15 K, 21035 kPa, m1 = 0.1551 | 723.12 ± 0.74
398.15 K, 25069 kPa, m1 = 0.8904 | 763.49 ± 0.72
398.15 K, 25235 kPa, m1 = 0.2943 | 735.81 ± 0.79
398.15 K, 26078 kPa, m1 = 0.1551 | 729.75 ± 0.83
398.15 K, 30027 kPa, m1 = 0.1551 | 734.55 ± 0.9
398.15 K, 30047 kPa, m1 = 0.8904 | 769.04 ± 0.79
398.15 K, 30385 kPa, m1 = 0.2943 | 741.96 ± 0.88
398.15 K, 35256 kPa, m1 = 0.2943 | 747.26 ± 0.96
398.15 K, 35845 kPa, m1 = 0.8904 | 774.96 ± 0.87
398.15 K, 35941 kPa, m1 = 0.1551 | 741.06 ± 1
398.15 K, 39127 kPa, m1 = 0.2943 | 751.09 ± 1
398.15 K, 39254 kPa, m1 = 0.8904 | 778.18 ± 0.92
398.15 K, 39789 kPa, m1 = 0.1551 | 744.86 ± 1.1
398.28 K, 900 kPa, m1 = 3.614 | 842.05 ± 0.21
398.28 K, 4994 kPa, m1 = 3.614 | 846.92 ± 0.25
398.28 K, 10001 kPa, m1 = 3.614 | 852.52 ± 0.3
398.28 K, 14988 kPa, m1 = 3.614 | 857.76 ± 0.35
398.28 K, 19997 kPa, m1 = 3.614 | 862.72 ± 0.39
398.28 K, 24994 kPa, m1 = 3.614 | 867.42 ± 0.43
398.28 K, 29993 kPa, m1 = 3.614 | 871.89 ± 0.47
398.28 K, 34991 kPa, m1 = 3.614 | 876.17 ± 0.51
398.28 K, 39987 kPa, m1 = 3.614 | 880.27 ± 0.54
398.29 K, 904 kPa, m1 = 0.5393 | 712.1 ± 0.32
398.29 K, 906 kPa, m1 = 1.803 | 771.63 ± 0.27
398.29 K, 4994 kPa, m1 = 1.803 | 777.53 ± 0.33
398.29 K, 4996 kPa, m1 = 0.5393 | 719.24 ± 0.4
398.29 K, 9985 kPa, m1 = 0.5393 | 727.14 ± 0.5
398.29 K, 9986 kPa, m1 = 1.803 | 784.19 ± 0.41
398.29 K, 14989 kPa, m1 = 1.803 | 790.36 ± 0.48
398.29 K, 15010 kPa, m1 = 0.5393 | 734.37 ± 0.59
398.29 K, 19986 kPa, m1 = 1.803 | 796.11 ± 0.55
398.29 K, 20018 kPa, m1 = 0.5393 | 740.98 ± 0.67
398.29 K, 24995 kPa, m1 = 1.803 | 801.52 ± 0.61
398.29 K, 25002 kPa, m1 = 0.5393 | 747.09 ± 0.76
398.29 K, 29986 kPa, m1 = 1.803 | 806.59 ± 0.67
398.29 K, 30001 kPa, m1 = 0.5393 | 752.82 ± 0.84
398.29 K, 34984 kPa, m1 = 0.5393 | 758.22 ± 0.92
398.29 K, 34988 kPa, m1 = 1.803 | 811.42 ± 0.73
398.29 K, 39996 kPa, m1 = 0.5393 | 763.34 ± 0.99
398.29 K, 40001 kPa, m1 = 1.803 | 816.03 ± 0.79

From the NIST ThermoML archive (doi:10.1016/j.jct.2006.01.008)
